Source: PubChem BioAssay AID192 (DTP/NCI, 2004)
Values joined by “and” are separate entries in the source; they are usually repeats but may differ in a detail not shown here. Equal values may be shown once. Toxic doses and inconclusive results are not listed. Numbered stars: 1 amine (or outer) side, 2 acyl side, 3 side chain; on linkers, the order of the positions; unused ones are H or OH. Bridge positions count the residues as written; N and C are the ends. Square brackets hold non-standard residues; d marks the D form. Peptide text beside a SMILES is read from it. I, II: the chains in the order shown. Actinocin(9to1) = Cc1c2oc3c(C)ccc(C(=O)[*:1])c3nc-2c(C(=O)[*:2])c(N)c1=O; NMeV = CN[CH](C(=O)O)C(C)C; Sar = CNCC(=O)O

Test system: BDF1 mice, B16 melanoma ip, median survival T/C
Assay: NCI In Vivo Anticancer Drug Screen. Data for tumor model B16 Melanoma (intraperitoneal) in B6D2F1 (BDF1) mice
Conditions: endpoint: median survival time, higher = longer survival
Procedure, shortened: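 Read-out: survival or tumor size, given as treated/control ratio. Controls received vehicle only; animals bore transplantable tumors.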

[1] = dose: 6.25 mg/kg/injection, schedule: Q01DX009 (ip), vehicle: saline with Tween-80
[2] = dose: 12.5 mg/kg/injection, schedule: Q01DX009 (ip), vehicle: saline with Tween-80
[3] = dose: 25.0 mg/kg/injection, schedule: Q01DX009 (ip), vehicle: saline with Tween-80
[4] = dose: 100.0 mg/kg/injection, schedule: Q01DX009 (ip), vehicle: saline with Tween-80
[5] = dose: 1.56 mg/kg/injection, schedule: Q01DX009 (ip), vehicle: saline
[6] = dose: 25.0 mg/kg/injection, schedule: Q01DX009 (ip), vehicle: saline
[7] = dose: 100.0 mg/kg/injection, schedule: Q01DX009 (ip), vehicle: Klucel (hydroxypropylcellulose) (HPC)
[8] = dose: 200.0 mg/kg/injection, schedule: Q01DX009 (ip), vehicle: Klucel (hydroxypropylcellulose) (HPC)
[9] = dose: 50.0 mg/kg/injection, schedule: Q01DX009 (ip), vehicle: saline
[10] = dose: 100.0 mg/kg/injection, schedule: Q01DX009 (ip), vehicle: saline
[11] = dose: 200.0 mg/kg/injection, schedule: Q01DX009 (ip), vehicle: saline with Tween-80
[12] = dose: 20.0 mg/kg/injection, schedule: Q01DX009 (ip), vehicle: saline with Tween-80

SMILES: COc1cccc2c1C(=O)c1c(O)c3c(c(O)c1C2=O)C[C@@](O)(/C(C)=N/NC(=O)c1cccc([N+](=O)[O-])c1)C[C@@H]3OC1CC(N)C(O)C(C)O1 (some centres not stated)
- T/C (dose: 2.0 mg/kg/injection, schedule: Q01DX001 (ip), vehicle: water): 153 % of control
- T/C (dose: 4.0 mg/kg/injection, schedule: Q01DX001 (ip), vehicle: water): 158 % of control and 164 % of control
- T/C (dose: 8.0 mg/kg/injection, schedule: Q01DX001 (ip), vehicle: water): 168 % of control and 178 % of control
- T/C (dose: 16.0 mg/kg/injection, schedule: Q01DX001 (ip), vehicle: water): 164 % of control and 184 % of control
- T/C (dose: 32.0 mg/kg/injection, schedule: Q01DX001 (ip), vehicle: water): 95 % of control

SMILES: CC1(C)CC1(Br)Br
- T/C [1]: 112 % of control
- T/C [2]: 110 % of control
- T/C [3]: 118 % of control
- T/C (dose: 50.0 mg/kg/injection, schedule: Q01DX009 (ip), vehicle: saline with Tween-80): 102 % of control
- T/C [4]: 110 % of control

SMILES: CC(C)(CN=Cc1ccccc1[O-])N=Cc1ccccc1[O-].[O]=[V]
- T/C [1]: 95 % of control
- T/C (dose: 6.25 mg/kg/injection, schedule: Q04DX003 (ip), vehicle: saline with Tween-80): 113 % of control
- T/C [2]: 95 % of control
- T/C (dose: 12.5 mg/kg/injection, schedule: Q04DX003 (ip), vehicle: saline with Tween-80): 91 % of control
- T/C [3]: 92 % of control
- T/C (dose: 25.0 mg/kg/injection, schedule: Q04DX003 (ip), vehicle: saline with Tween-80): 104 % of control

SMILES: CC(=N\[O-])/C(C)=N/O.CC(=N\[O-])/C(C)=N/O.CC(=O)[O-].CC(=O)[O-].O.[Rh+2].[Rh+2]
- T/C [5]: 115 % of control
- T/C [6]: 115 % of control

SMILES: c1ccc(-c2nc3cnccc3o2)cc1
- T/C (dose: 3.13 mg/kg/injection, schedule: Q04DX003 (ip), vehicle: Klucel (hydroxypropylcellulose) (HPC)): 91 % of control
- T/C (dose: 6.25 mg/kg/injection, schedule: Q04DX003 (ip), vehicle: Klucel (hydroxypropylcellulose) (HPC)): 100 % of control
- T/C (dose: 12.5 mg/kg/injection, schedule: Q04DX003 (ip), vehicle: Klucel (hydroxypropylcellulose) (HPC)): 91 % of control and 97 % of control

SMILES: Cc1ccc(CS)cc1
- T/C [7]: 112 % of control
- T/C [8]: 118 % of control

SMILES: NC(Cn1ccc(=O)c(O)c1)C(=O)O (configuration not stated)
- T/C [9]: 109 % of control
- T/C (dose: 100.0 mg/kg/injection, schedule: Q01DX007 (ip), vehicle: saline with Tween-80): 98 % of control
- T/C [10]: 107 % of control
- T/C (dose: 200.0 mg/kg/injection, schedule: Q01DX007 (ip), vehicle: saline with Tween-80): 88 % of control
- T/C (dose: 200.0 mg/kg/injection, schedule: Q01DX009 (ip), vehicle: saline): 109 % of control
- T/C (dose: 294.0 mg/kg/injection, schedule: Q01DX007 (ip), vehicle: saline with Tween-80): 117 % of control
- T/C (dose: 300.0 mg/kg/injection, schedule: Q01DX007 (ip), vehicle: saline with Tween-80): 86 % of control
- T/C (dose: 367.5 mg/kg/injection, schedule: Q01DX007 (oral), vehicle: saline with Tween-80): 103 % of control
- T/C (dose: 420.0 mg/kg/injection, schedule: Q01DX007 (ip), vehicle: saline with Tween-80): 96 % of control
- T/C (dose: 525.0 mg/kg/injection, schedule: Q01DX007 (oral), vehicle: saline with Tween-80): 96 % of control
- T/C (dose: 750.0 mg/kg/injection, schedule: Q01DX007 (oral), vehicle: saline with Tween-80): 98 % of control

SMILES: CCc1ccc2c(c1)N(CC(C)CN(C)C)c1ccccc1S2 (configuration not stated)
- T/C (dose: 0.78 mg/kg/injection, schedule: Q01DX009 (ip), vehicle: saline): 105 % of control
- T/C [5]: 87 % of control and 111 % of control
- T/C (dose: 3.12 mg/kg/injection, schedule: Q01DX009 (ip), vehicle: saline): 98 % of control and 108 % of control

SMILES: CCN1CC(CCN2CCOCC2)C(c2ccccc2)(c2ccccc2)C1=O (configuration not stated)
- T/C (dose: 6.25 mg/kg/injection, schedule: Q01DX009 (ip), vehicle: saline): 91 % of control
- T/C (dose: 12.5 mg/kg/injection, schedule: Q01DX009 (ip), vehicle: saline): 104 % of control
- T/C [6]: 100 % of control
- T/C [9]: 102 % of control
- T/C [10]: 100 % of control

SMILES: CC[C@@]1(O)C[C@H](OC2CC(N(C)C)C(O)C(C)O2)c2c(O)c3c(c(O)c2[C@H]1OC1CC(N(C)C)C(O)C(C)O1)C(=O)c1cccc(O)c1C3=O (some centres not stated)
- T/C (dose: 31.2 micrograms/kg/injection, schedule: Q01DX009 (ip), vehicle: Klucel (hydroxypropylcellulose) (HPC)): 100 % of control
- T/C (dose: 62.5 micrograms/kg/injection, schedule: Q01DX009 (ip), vehicle: Klucel (hydroxypropylcellulose) (HPC)): 89 % of control

SMILES: CC1(C)SC(C(NC(=O)Cc2ccccc2)C(=O)O)NC1C(=O)O (configuration not stated)
- T/C [4]: 105 % of control
- T/C [11]: 102 % of control

SMILES: CC1CCCC(C)N1C1=NCCO1 (configuration not stated)
- T/C (dose: 5.0 mg/kg/injection, schedule: Q01DX009 (ip), vehicle: saline with Tween-80): 100 % of control
- T/C (dose: 5.0 mg/kg/injection, schedule: Q04DX003 (ip), vehicle: saline with Tween-80): 100 % of control
- T/C (dose: 10.0 mg/kg/injection, schedule: Q01DX009 (ip), vehicle: saline with Tween-80): 112 % of control
- T/C (dose: 10.0 mg/kg/injection, schedule: Q04DX003 (ip), vehicle: saline with Tween-80): 97 % of control
- T/C [12]: 92 % of control
- T/C (dose: 20.0 mg/kg/injection, schedule: Q04DX003 (ip), vehicle: saline with Tween-80): 100 % of control

SMILES: CC(C)=CCC/C(C)=C/CNCCc1c[nH]c2ccccc12
- T/C (dose: 6.25 mg/kg/injection, schedule: Q01DX009 (ip), vehicle: Klucel (hydroxypropylcellulose) (HPC)): 107 % of control
- T/C (dose: 12.5 mg/kg/injection, schedule: Q01DX009 (ip), vehicle: Klucel (hydroxypropylcellulose) (HPC)): 111 % of control

SMILES: [Cl][Pt+2][Cl].[NH-]c1ccc(Cl)cc1[NH-]
- T/C (dose: 2.5 mg/kg/injection, schedule: Q01DX009 (ip), vehicle: saline with Tween-80): 108 % of control
- T/C [12]: 153 % of control
- T/C (dose: 40.0 mg/kg/injection, schedule: Q01DX009 (ip), vehicle: saline with Tween-80): 123 % of control

SMILES: Cc1c2oc3c(C)ccc(C(=O)NC4C(=O)NC(C(C)C)C(=O)N(C)CC(=O)N(C)CC(=O)N(C)C(C(C)C)C(=O)OC4C)c3nc-2c(C(=O)NC2C(=O)NC(C(C)C)C(=O)N(C)CC(=O)N(C)CC(=O)N(C)C(C(C)C)C(=O)OC2C)c(N)c1=O (configuration not stated) (I: TV[Sar][Sar][NMeV] / II: TV[Sar][Sar][NMeV]; ester I:1-I:C, II:1-II:C; linker I:N-II:N via Actinocin(9to1); configuration not given here)
- T/C (dose: 0.71 mg/kg/injection, schedule: Q01DX009 (ip), vehicle: water): 161 % of control
- T/C (dose: 1.07 mg/kg/injection, schedule: Q01DX009 (ip), vehicle: water): 161 % of control
- T/C (dose: 125.0 micrograms/kg/injection, schedule: Q01DX009 (ip), vehicle: saline + alcohol): 112 % of control
- T/C (dose: 375.0 micrograms/kg/injection, schedule: Q04DX003 (ip), vehicle: saline + alcohol): 117 % of control and 123 % of control
- T/C (dose: 1500.0 micrograms/kg/injection, schedule: Q04DX003 (ip), vehicle: saline + alcohol): 162 % of control
- T/C (dose: 3000.0 micrograms/kg/injection, schedule: Q04DX003 (ip), vehicle: saline + alcohol): 159 % of control

SMILES: Clc1ccc(C(c2ccc(Cl)cc2)C(Cl)(Cl)Cl)cc1
- T/C (dose: 16.0 mg/kg/injection, schedule: Q01DX009 (ip), vehicle: Klucel (hydroxypropylcellulose) (HPC)): 101 % of control
- T/C (dose: 32.0 mg/kg/injection, schedule: Q01DX009 (ip), vehicle: Klucel (hydroxypropylcellulose) (HPC)): 92 % of control

SMILES: O=C(O)COc1ccc([N+](=O)[O-])cc1
- T/C [4]: 96 % of control
- T/C [11]: 87 % of control

SMILES: CC(=O)C(=O)NC1/C=C(C)\C=C/C(O)C/C=C(C)\C=C/C(O)CC2OC(=O)C1(C)C(=O)C2C (configuration not stated)
- T/C (dose: 25.0 mg/kg/injection, schedule: Q01DX009 (ip), vehicle: Klucel (hydroxypropylcellulose) (HPC)): 100 % of control
- T/C (dose: 50.0 mg/kg/injection, schedule: Q01DX009 (ip), vehicle: Klucel (hydroxypropylcellulose) (HPC)): 118 % of control
- T/C [7]: 117 % of control
- T/C [8]: 112 % of control

SMILES: CC1c2cccc(Cl)c2C(=O)c2c(Cl)cccc21
- T/C [7]: 102 % of control
- T/C [8]: 100 % of control
- T/C (dose: 400.0 mg/kg/injection, schedule: Q01DX009 (ip), vehicle: Klucel (hydroxypropylcellulose) (HPC)): 102 % of control

SMILES: CCCCCCCC(=O)CCCCC
- T/C (dose: 50.0 mg/kg/injection, schedule: Q01DX009 (ip), vehicle: other): 90 % of control
- T/C (dose: 100.0 mg/kg/injection, schedule: Q01DX009 (ip), vehicle: other): 94 % of control
- T/C (dose: 200.0 mg/kg/injection, schedule: Q01DX009 (ip), vehicle: other): 100 % of control
